Data taken from patent EP4782444A1, “CRYSTAL FORM OF PYRIMIDINE ANILINE COMPOUND, PREPARATION METHOD, AND USE” (TYK Medicines, Inc., priority 2023, dated 2025).
Where two headings read alike, the source gives them in different places. Blank lines part the entries; values can stand above or below the molecule they belong to.

Key:
EGFR exon 20ins = conditions: advanced non-small cell lung cancer; cited from earlier work
[1] = Solid-state stability study (HPLC and XRPD analysis); assay type: physicochemical
[2] = 37 °C
[3] = system: exon 20 insertion mutations of EGFR and HER2; conditions: reported clinical trial results; cited from earlier work

SMILES: C=CC(=O)Nc1cc(Nc2nccc(Nc3cc(Cl)c(F)cc3C(C)(C)O)n2)c(OC)cc1N1CC[C@@H](N(C)C)C1 [DZD9008]
objective response rate (EGFR exon 20ins): 40%

Appearance ([1]; 25°C/60%RH, day 3): Unchanged
Crystalline Form ([1]; 25°C/60%RH, day 3, XRPD): Unchanged
Purity % ([1]; 25°C/60%RH, day 3, open vial): 98.68%
Appearance ([1]; 25°C/60%RH, day 7): Unchanged
Crystalline Form ([1]; 25°C/60%RH, day 7, XRPD): Unchanged
Purity % ([1]; 25°C/60%RH, day 7, open vial): 98.66%
Appearance ([1]; 25°C/95±5%RH, day 3): Unchanged
Crystalline Form ([1]; 25°C/95±5%RH, day 3, XRPD): Unchanged
Purity % ([1]; 25°C/95±5%RH, day 3, open vial): 98.66%
Appearance ([1]; 25°C/95±5%RH, day 7): Unchanged
Crystalline Form ([1]; 25°C/95±5%RH, day 7, XRPD): Changed
Purity % ([1]; 25°C/95±5%RH, day 7, open vial): 98.67%
Appearance ([1]; 40°C/75%RH, day 3): Unchanged
Crystalline Form ([1]; 40°C/75%RH, day 3, XRPD): Unchanged
Purity % ([1]; 40°C/75%RH, day 3, open vial): 98.67%
Appearance ([1]; 40°C/75%RH, day 7): Unchanged
Crystalline Form ([1]; 40°C/75%RH, day 7, XRPD): Unchanged
Purity % ([1]; 40°C/75%RH, day 7, open vial): 98.64%
Appearance ([1]; 60 °C, day 3): Unchanged
Crystalline Form ([1]; 60 °C, day 3, XRPD): Unchanged
Purity % ([1]; 60 °C, day 3, open vial): 98.66%
Appearance ([1]; 60 °C, day 7): Unchanged
Crystalline Form ([1]; 60 °C, day 7, XRPD): Unchanged
Purity % ([1]; 60 °C, day 7, open vial): 98.68%
Appearance ([1]; 80 °C, day 1): Unchanged
Crystalline Form ([1]; 80 °C, day 1, XRPD): Unchanged
Purity % ([1]; 80 °C, day 1, open vial): 98.77%
Appearance ([1]; 80 °C, day 3): Unchanged
Crystalline Form ([1]; 80 °C, day 3, XRPD): Unchanged
Purity % ([1]; 80 °C, day 3, open vial): 98.66%
Purity % ([1]; day 0 (baseline before storage), mean of 3 parallel experiments): 98.83%
changes under other conditions ([1]; storage conditions other than 25 °C /90±5%RH): no significant changes were observed
Solubility ([2]; FaSSIF, 0.5 h, 30 min): > 5030 µg/mL
Solubility ([2]; FaSSIF, 2 h, 120 min): > 5030 µg/mL
Solubility ([2]; FaSSIF, 24 h, 1440 min): 3450 µg/mL
Solubility ([2]; FeSSIF, 0.5 h, 30 min): > 5010 µg/mL
Solubility ([2]; FeSSIF, 2 h, 120 min): > 5010 µg/mL
Solubility ([2]; FeSSIF, 24 h, 1440 min): > 5010 µg/mL
Solubility ([2]; H2O, 0.5 h, 30 min): 1640 µg/mL
Solubility ([2]; H2O, 2 h, 120 min): 1620 µg/mL
Solubility ([2]; H2O, 24 h, 1440 min): 1840 µg/mL
Solubility ([2]; SGF, 0.5 h, 30 min): > 5010 µg/mL
Solubility ([2]; SGF, 2 h, 120 min): > 5010 µg/mL
Solubility ([2]; SGF, 24 h, 1440 min): > 5010 µg/mL
SMILES: C=CC(=O)Nc1cc(Nc2ncc(C(=O)OC(C)C)c(-c3cn(C)c4ccccc34)n2)c(OC)cc1N(C)[C@@H]1[C@@H]2CN(C)C[C@@H]21 [Maleate crystalline form II]
Crystalline Form ([1]; after 7 days, 25 °C /90±5%RH): transformed into an unstable hydrate of maleate

SMILES: C=CC(=O)Nc1cc(Nc2ncc(C(=O)OC(C)C)c(-c3cn(C)c4ccccc34)n2)c(OC)cc1N(C)CCN(C)C [TAK-788]
objective response rate [3]: 43%
